Results taken from paper PMC10392864, “Chukrasia tabularis limonoid plays anti-inflammatory role by regulating NF-κB signaling pathway in lipopolysaccharide-induced macrophages” (Food & Nutrition Research, 2023).
Read-outs that look alike come from different tables or passages of the source. One block for each molecule: values may come before it.

Experiments:
[1] = system: LPS-induced NO production in RAW264.7 cells; assay: LPS-induced NO production in RAW264.7 cells (Griess reaction); type: cell-based; settings: RAW264.7 cells, LPS 2 µg/mL, supernatant after 24 h, read-out: IC50, inhibitory activity on LPS-induced NO production in RAW264.7 cells
Experimental: The inhibitory activities of compounds 1–16 on LPS stimulated macrophages was determined by Griess reaction. The NO content was detected by the NO kit according to the protocol described earlier ([23]). RAW264.7 cells obtained from the China Center for Cultivated Studies (Shanghai, China) were maintained in DMEM containing 10% FBS, and under 5% CO2 at 37°C. Briefly, the cells were seeded in a 96-well plate (1 × 10^5 cells/well), after 8 h of pre-incubation under 5% CO2 at 37°C, compounds 1–16 were added to the well plate, respectively, for 12 h. […] The supernatant of the cell culture were collected 24 h later.

[2] = Cytotoxicity, SRB method, H460; type: cell-based, human; settings: human, H460 (lung) cells
Experimental: (§1) Huh-7 (hepatoma), MCF-7 (human breast), KB (oral epithelial), Hela (cervical), H460 (lung), A-549 (lung), and HepG2 (hepatocellular) cancer cell lines (provided by Shanghai Cell Bank) were maintained in RPMI 1640 at 37 ℃, supplemented with 10% FBS. Cytotoxicity was determined by the SRB method, with 5-fluorouracil (5-FU) as a positive control. The IC50 value was calculated using the GraphPad prism program.

[3] = Cytotoxicity, SRB method, KB; type: cell-based, human; settings: human, KB (oral epithelial) cells
Experimental: as §1

[4] = Cytotoxicity, SRB method, MCF-7; type: cell-based, human; settings: human, MCF-7 (human breast) cells
Experimental: as §1

[5] = Cytotoxicity, SRB method, Huh-7; type: cell-based, human; settings: human, Huh-7 (hepatoma) cells
Experimental: as §1

[6] = Cytotoxicity, SRB method, Hela; type: cell-based, human; settings: human, Hela (cervical) cells
Experimental: as §1

[7] = Cytotoxicity, SRB method, HepG2; type: cell-based, human; settings: human, HepG2 (hepatocellular) cells
Experimental: as §1

[8] = Cytotoxicity, SRB method, A549; type: cell-based, human; settings: human, A-549 (lung) cells
Experimental: as §1

H460 (lung) cells = assay: Cytotoxicity, SRB method, H460; type: cell-based, human
Experimental: as §1

[9] = system: KB (oral epithelial) cells; assay: Cytotoxicity, SRB method, KB; type: cell-based, human
Experimental: as §1

[10] = system: MCF-7 (human breast) cells; assay: Cytotoxicity, SRB method, MCF-7; type: cell-based
Experimental: as §1

Huh-7 (hepatoma) cells = assay: Cytotoxicity, SRB method, Huh-7; type: cell-based, human
Experimental: as §1

Hela (cervical) cells = assay: Cytotoxicity, SRB method, Hela; type: cell-based, human
Experimental: as §1

[11] = system: HepG2 (hepatocellular) cells; assay: Cytotoxicity, SRB method, HepG2; type: cell-based, human
Experimental: as §1

A-549 (lung) cells = assay: Cytotoxicity, SRB method, A549; type: cell-based, human
Experimental: as §1

[12] = system: Huh7, HepG2, KB, H460, Hela, A-549 and MCF-7 tumor cell lines; assay: Cytotoxicity, SRB method, statements on all seven tumor cell lines; type: cell-based, human; settings: for IC50: all seven cell lines, SRB method, footnote of Table S3, read-out: IC50, cytotoxicity against all cell lines tested; for cytotoxicity on seven tumor cell lines (in words): Huh7, HepG2, KB, H460, Hela, A-549, MCF-7
Experimental: The cytotoxicity of the separated compounds was assessed against seven tumor cell lines, Huh7, HepG2, KB, H460, Hela, A-549 and MCF-7 ([40], [41]).
as §1

xylene-induced ear edema = assay: Ear edema induced by xylene in mice; type: in vivo; settings: 200 mg/kg intragastric, 1 h before xylene, ears weighed 1 h after xylene
Description: Male ICR mice (18–20 g) were provided by the Laboratory Animal Center, Fujian Medical University. […] One hour after xylene treatment, the mice were sacrificed by cervical dislocation. […] The weight difference of two plugs was used to measure the edema response (Table S1). Animal care and use complied with institutional guidelines, and the program was affirmed by the Experimental Animal Management Committee of Fujian Medical University.

Molecule: CCC(=O)OC1C2(O)C(OC(=O)CC(C)C)C3(C)CC24OC2(C)OC15C1CC(=O)OC(C6=CC(O)OC6=O)C1(C)CCC5(O2)C4(C)C3CC(=O)OC (stereo not shown) [Compound 3, Chukrasin G]
- IC50 [2]: > 100 µM
- IC50 ([1]; Mus musculus): 10.5 ± 0.98 µM
- IC50 [3]: > 100 µM
- IC50 [4]: > 100 µM
- IC50 [5]: > 100 µM
- IC50 [6]: > 100 µM
- IC50 [7]: 99.4 ± 10.6 µM
- IC50 [8]: > 100 µM

Molecule: C[C@@H](C[C@@H](O)[C@H](O)C(C)(C)O)[C@@H]1CC[C@]2(C)C3=CC[C@H]4C(C)(C)C(=O)CC[C@]4(C)[C@H]3CC[C@@]12C [Compound 15, piscidinol A]
- IC50 [1]: 33.6 ± 4.77 µM

Molecule: O=c1[nH]cc(F)c(=O)[nH]1 [5-Fluorouracil, 5-fluorouracil, reference compound]
- IC50 [2]: 13.7 ± 2.85 µM
- IC50 [3]: 19.5 ± 1.24 µM
- IC50 [4]: 23.4 ± 1.22 µM
- IC50 [5]: 36.2 ± 4.17 µM
- IC50 [6]: 2.31 ± 0.98 µM
- IC50 [7]: 30.5 ± 1.54 µM
- IC50 [8]: 36.2 ± 1.73 µM

Molecule: COC(=O)CC1C2(C)CC34OC5(C)OC6(C7CC(=O)OC(c8ccoc8)C7(C)CCC6(O5)C13C)C(OC(=O)C(C)C)C4(O)C2OC(=O)C(C)C (stereo not shown) [Compound 5, phragmalin, 3, 30-di-isobutyrates]
- IC50 (H460 (lung) cells): > 100 µM
- IC50 [1]: 35.6 ± 7.23 µM
- IC50 [9]: > 100 µM
- IC50 [10]: > 100 µM
- IC50 (Huh-7 (hepatoma) cells): > 100 µM
- IC50 (Hela (cervical) cells): > 100 µM
- IC50 [11]: 78 ± 12.7 µM
- IC50 (A-549 (lung) cells): > 100 µM

Molecule: COC(=O)CC1C2(C)CC34OC5(C)OC6(C7CC(=O)OC(C8=CC(O)OC8=O)C7(C)CCC6(O5)C13C)C(OC(=O)C(C)C)C4(O)C2OC(=O)C(C)C (stereo not shown) [Compound 4, phragmalin, 22, 23-dihydro-23-hydroxy-21-oxo-3, 30-di-isobutyrates]
- IC50 [1]: 21.9 ± 5.61 µM
- IC50 [12]: > 100 µM

Molecule: CO[C@H]1O[C@@H]([C@H](O)C(C)(C)OC)C[C@H]1[C@@H]1CC[C@]2(C)C3=CC[C@H]4C(C)(C)C(=O)CC[C@]4(C)[C@H]3CC[C@@]12C [Compound 13, 21β, 25-dimethylmelianodiol]
- IC50 [1]: 24.9 ± 4.6 µM

Molecule: COC(=O)CC1C2(C)CC34OC5(C)OC6(C7CC(=O)OC(C8=CC(=O)OC8O)C7(C)CCC6(O5)C13C)C(OC(=O)C(C)C)C4(O)C2OC(=O)C(C)C (stereo not shown) [Compound 1, Phragmalin A]
- IC50 ([1]; Mus musculus): 10.3 ± 0.39 µM

Molecule: CC(=O)Oc1ccccc1C(=O)O [Aspirin]
- Edema Degree (±SD) (xylene-induced ear edema): 4.99 ± 0.30 mg
- Inhibition Rate of ear edema (xylene-induced ear edema): 36.30%

Molecule: COc1ccc2c(c1)c(CC(=O)O)c(C)n2C(=O)c1ccc(Cl)cc1 [Indomethacin, reference compound]
- IC50 ([1]; Mus musculus): 26.2 ± 1.56 µM

Molecule: CC(C)(O)[C@@H](O)[C@H]1C[C@@H]([C@@H]2CC[C@]3(C)C4=CC[C@H]5C(C)(C)C(=O)CC[C@]5(C)[C@H]4CC[C@@]23C)[C@H](O)O1 [Compound 11, melianodiol]
- IC50 (H460 (lung) cells): 73.2 ± 10.5 µM
- IC50 [1]: 13.3 ± 2.67 µM
- IC50 [9]: 63.5 ± 8.25 µM
- IC50 [10]: 52.6 ± 7.2 µM
- cytotoxicity on seven tumor cell lines (in words) [12]: potent inhibitory activities
- IC50 (Huh-7 (hepatoma) cells): 79.8 ± 9.24 µM
- IC50 (Hela (cervical) cells): 86.3 ± 9.28 µM
- IC50 [11]: 80 ± 5.26 µM
- IC50 (A-549 (lung) cells): 45.1 ± 6.33 µM

Molecule: 3R, 23S, 24R, 25- tetraol- 7- glyoxiene [Compound 14]
- IC50 [1]: 11.2 ± 1.12 µM

Molecule: 24-hydroxyl-7, 25-dien-3-one [Compound 10]
- IC50 [1]: 95.1 ± 9.4 µM
- IC50 [12]: > 100 µM

Further lines, with some results ahead:

- IC50 [1]: 13.9 ± 5.33 µM
Molecule: CO[C@@H]1O[C@@H]([C@H](O)C(C)(C)OC)C[C@H]1[C@@H]1CC[C@]2(C)C3=CC[C@H]4C(C)(C)C(=O)CC[C@]4(C)[C@H]3CC[C@@]12C [Compound 12, 21α, 25-dimethyl-melianodiol]

- IC50 [1]: > 100 µM
Molecule: 21β-methoxy-25-ene-bitrinonediol [Compound 7]
- IC50 (H460 (lung) cells): > 100 µM
- IC50 [9]: 40.9 ± 6.56 µM
- IC50 [10]: > 100 µM
- cytotoxicity on seven tumor cell lines (in words) [12]: moderate cytotoxicity
- IC50 (Huh-7 (hepatoma) cells): 94.7 ± 12.5 µM
- IC50 (Hela (cervical) cells): 58.4 ± 9.09 µM
- IC50 [11]: > 100 µM
- IC50 (A-549 (lung) cells): > 100 µM

- IC50 [1]: 52.5 ± 8.98 µM
Molecule: 21β- methylmelianodiol [Compound 9]
- IC50 [9]: 56.6 ± 8.3 µM
- IC50 [10]: > 100 µM
- cytotoxicity on seven tumor cell lines (in words) [12]: potent inhibitory activities
- IC50 (Hela (cervical) cells): 60 ± 4.19 µM
- IC50 [11]: 44.3 ± 6 µM
- IC50 (A-549 (lung) cells): 66 ± 10.1 µM

- IC50 [1]: 46.1 ± 6.11 µM
Molecule: C=C(C)C(O)C(O)CC(C)C1CCC2(C)C3=CCC4C(C)(C)C(=O)CCC4(C)C3CCC12C (stereo not shown) [Compound 8, (13a, 14b, 17a, 20S, 23R, 24R)-23, 24-dihydro-xylanosta-7, 25-dien-3-one]
- IC50 [12]: > 100 µM

- IC50 [1]: > 100 µM
Molecule: CC1(C)OC[C@H]([C@@H]2CC[C@]3(C)C4=CC[C@H]5C(C)(C)C(=O)CC[C@]5(C)[C@H]4CC[C@@]23C)C[C@@H](O)[C@@H]1O [Compound 16, hispidone]

- IC50 [1]: 35.6 ± 4.29 µM
Molecule: CC(C)(O)C1OCC(C2CCC3(C)C4=CCC5C(C)(C)C(=O)CCC5(C)C4CCC23C)CC1O (stereo not shown) [Compound 6, bourjotinolone A]
- IC50 [10]: > 100 µM
- cytotoxicity on seven tumor cell lines (in words) [12]: potent inhibitory activities
- IC50 (Huh-7 (hepatoma) cells): 29.6 ± 7.69 µM
- IC50 (Hela (cervical) cells): 29.3 ± 7.11 µM
- IC50 [11]: 59.3 ± 4.67 µM
- IC50 (A-549 (lung) cells): 43.6 ± 10.6 µM
